The subject of assay [1] is gel-filtered human platelets. As to the kind of experiment: Inhibition of the aggregation of gel-filtered human platelets after ADP or thrombin stimulation. It is filed as cell-based. The following applies: platelet aggregation. The procedure: (§1) The compounds are tested in particular for their inhibitory effect on blood platelet aggregation and the adhesion of fibrinogen to blood platelets. Gel-filtered blood platelets from human donor blood are used, which are activated with ADP or thrombin.
As a functional test, the inhibition of the aggregation of gel-filtered human platelets is measured after ADP or thrombin stimulation by the compounds according to the invention. The IC50 value of the inhibition is indicated (reference: G. A. Marguerie et al., J. Biol. Chem. 254 (1979), 5357-5363).

Assay [2] concerns the target T1, fibrinogen receptor (glycoprotein IIb/IIIa) (Homo sapiens, UniProt P05106+P08514).
T1 construct: its receptor (glycoprotein IIb/IIIa) on intact, gel-filtered human platelets; endogenous in cells; host or cells: gel-filtered platelets from human donor blood, stimulated with ADP (10 uM)
As to the kind of experiment: Inhibition of binding of 125I-fibrinogen to its receptor on intact, gel-filtered human platelets. The note with it: inhibition of 125I-fibrinogen binding after stimulation with ADP (10 μM), read-out: Ki (μM), ADP-stimulated. The procedure:
as §1
The inhibition of the binding of fibrinogen to its receptor (glycoprotein IIb/IIIa) on intact, gel-filtered human platelets by the compounds according to the invention is tested. The Ki value of the inhibition of binding of 125I-fibrinogen after stimulation with ADP (10 μM) is indicated. (Reference: J. S. Bennett and G. Vilaire, J. Clin. Invest. 64 (1979) 1393-1401; E. Kornecki et al., J. Biol. Chem. 256 (1981), 5695-5701; G. A. Marguerie et al., J. Biol. Chem. 254 (1979) 5357-5363; G. A. Marguerie et al., J. Biol. Chem. 255 (1980) 154-161.)

The mark [3] stands for this setting: ADP stimulation, read-out: ADP-stimulated IC50.
[4] abbreviates: thrombin stimulation, read-out: thrombin-stimulated IC50.

Like-named read-outs stand apart in the source and are kept apart here.

Experimental findings from patent US5703050A (Hoechst Aktiengesellschaft, priority 1993, dated 1997) are described below.

T1 sequence (P08514 32-887 limits assumed): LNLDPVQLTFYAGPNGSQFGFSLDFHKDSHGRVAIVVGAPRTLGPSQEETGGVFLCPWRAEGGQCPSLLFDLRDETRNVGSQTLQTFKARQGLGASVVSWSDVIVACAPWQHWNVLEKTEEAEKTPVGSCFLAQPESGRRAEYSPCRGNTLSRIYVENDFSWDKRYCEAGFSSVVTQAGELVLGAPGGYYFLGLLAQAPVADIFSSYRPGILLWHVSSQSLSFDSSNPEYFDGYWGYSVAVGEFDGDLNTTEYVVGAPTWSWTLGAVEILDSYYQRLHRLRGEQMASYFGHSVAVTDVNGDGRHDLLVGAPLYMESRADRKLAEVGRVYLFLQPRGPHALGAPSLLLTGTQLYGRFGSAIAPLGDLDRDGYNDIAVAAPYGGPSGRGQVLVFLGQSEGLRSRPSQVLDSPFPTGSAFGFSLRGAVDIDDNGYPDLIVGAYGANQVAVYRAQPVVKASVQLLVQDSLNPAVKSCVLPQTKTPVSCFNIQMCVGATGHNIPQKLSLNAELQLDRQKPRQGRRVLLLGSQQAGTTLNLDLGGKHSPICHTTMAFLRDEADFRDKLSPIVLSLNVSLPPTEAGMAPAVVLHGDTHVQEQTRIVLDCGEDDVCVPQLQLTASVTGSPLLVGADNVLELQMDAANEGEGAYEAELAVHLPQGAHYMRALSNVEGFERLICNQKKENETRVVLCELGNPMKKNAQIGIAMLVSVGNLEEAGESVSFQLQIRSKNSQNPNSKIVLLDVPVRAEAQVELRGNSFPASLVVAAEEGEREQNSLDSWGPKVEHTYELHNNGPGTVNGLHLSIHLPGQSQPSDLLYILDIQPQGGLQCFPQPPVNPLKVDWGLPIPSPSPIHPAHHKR
T1 sequence (P08514 891-1039 limits assumed): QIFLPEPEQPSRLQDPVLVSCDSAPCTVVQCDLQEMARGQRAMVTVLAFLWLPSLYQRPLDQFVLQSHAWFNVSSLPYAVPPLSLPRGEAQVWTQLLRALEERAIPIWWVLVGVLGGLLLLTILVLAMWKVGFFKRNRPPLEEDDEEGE
T1 sequence (P05106 27-788): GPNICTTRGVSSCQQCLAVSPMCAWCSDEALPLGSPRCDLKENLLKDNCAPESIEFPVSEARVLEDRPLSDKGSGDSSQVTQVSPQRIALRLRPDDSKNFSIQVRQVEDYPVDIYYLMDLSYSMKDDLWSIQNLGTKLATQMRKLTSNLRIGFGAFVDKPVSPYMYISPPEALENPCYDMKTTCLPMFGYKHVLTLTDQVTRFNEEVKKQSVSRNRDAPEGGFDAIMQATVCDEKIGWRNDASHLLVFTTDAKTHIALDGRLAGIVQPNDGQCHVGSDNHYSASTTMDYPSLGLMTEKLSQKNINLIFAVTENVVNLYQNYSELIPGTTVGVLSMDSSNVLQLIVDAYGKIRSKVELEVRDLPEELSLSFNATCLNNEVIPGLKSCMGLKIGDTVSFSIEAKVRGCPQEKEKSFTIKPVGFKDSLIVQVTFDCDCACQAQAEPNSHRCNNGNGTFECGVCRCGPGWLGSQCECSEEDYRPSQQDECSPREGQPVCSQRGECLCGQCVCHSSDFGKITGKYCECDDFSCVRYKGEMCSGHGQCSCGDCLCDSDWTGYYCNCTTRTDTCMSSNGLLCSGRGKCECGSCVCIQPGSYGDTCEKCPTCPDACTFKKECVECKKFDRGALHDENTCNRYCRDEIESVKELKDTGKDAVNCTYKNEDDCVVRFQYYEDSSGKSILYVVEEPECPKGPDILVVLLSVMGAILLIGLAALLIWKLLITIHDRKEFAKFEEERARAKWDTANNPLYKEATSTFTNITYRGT

As to “3-(3-(3-Aminopropyl)ureido)benzoyl-L-aspartyl-L-phenylglycine [Example 10]”, the concentration for half-maximal inhibition (IC50) (usually the point on the concentration scale where inhibition reaches its midpoint) worked out at 8500 nM in assay [1] (setting [3]) and 3000 nM in assay [1] (setting [4]).
In the same order, the values of “(3-(4-(Aminoiminomethyl)phenyl)ureido)acetyl-L-aspartylbenzylamide [Example 8]” are 2000 nM and 2000 nM.
In the case of `N=C(N)c1ccc(NC(=O)NCC(=O)N[C@@H](CC(=O)O)C(=O)N[C@H](C(=O)O)c2ccccc2)cc1` [Example 1], in assay [2], the Ki – broadly, the dissociation constant of the complex between target and ligand, obtained from inhibition or displacement – is 0.03 µM. The figures for the IC50 in assay [1] (setting [3]) and in assay [1] (setting [4]) were 150 nM and 100 nM, respectively.
Regarding “(3-(4-(Aminoiminomethyl)phenyl)ureido)acetyl-L-aspartyl-L-phenylglycine methyl ester trifluoroaetate [Example 6]”, the figures for the IC50 in assay [1] (setting [3]) and in assay [1] (setting [4]) were 750 nM and 300 nM, respectively.
Regarding “3-((3-(4-(Aminoiminomethyl)phenyl)ureido)acetylamino)-3-phenyl-propionic acid [Example 7]”, the values for the 50% inhibitory concentration (IC50) in assay [1] (setting [3]) and in assay [1] (setting [4]) were 3000 nM and 1500 nM, respectively.
